# Reference: US20210214358A1, “CDK4/6 INHIBITOR AND PHARMACEUTICALLY ACCEPTABLE SALT AND POLYMORPH THEREOF AND USE THEREOF” (SHANGHAI HAIYAN PHARMACEUTICAL TECHNOLOGY CO., LTD., priority 2018, published 2021)
# Where two headings read alike, the source gives them in different places.
# Columns and labels:
# [1] = Hygroscopicity test (DVS); assay type: physicochemical; conditions: for hygroscopicity (in words): 80% RH at 25° C.; for hygroscopic weight gain: humidity increases to 80% RH at 25° C.
# Method: The Dynamic Vapor Sorption (DVS) curve: acquired on the DVS Intrinsic of Surface Measurement Systems. The relative humidity at […] is corrected with the deliquescence points of LiCl, Mg (NO3)2 and KCl.
# [2] = Solubility experiment; assay type: physicochemical; conditions: for solubility in aqueous medium (summary): aqueous media of Table 6
# [3] = Stability experiment: crystal form by XRD; assay type: physicochemical
# Method: (§1) 1. Stability experiment of crystal form A and crystal form B-1 • (A) An appropriate amount of samples were weighed respectively and placed open at room temperature and under accelerated conditions (40° C./75% RH), on day 0, 7, 14, and 28 • (B) Crystal form A was placed in an oven at 60° C., on day 14, 32.
# (§2) The content and related substance changes were detected by HPLC, and XRD was measured at the same time to investigate stability of the crystal forms.
# [4] = Stability experiment: content and related substance by HPLC; assay type: physicochemical
# Method: as §1, §2
# [5] = Thermogravimetric analysis; assay type: physicochemical; conditions: under 50° C.-90° C.
# Source text: TGA and DSC pattern: TGA and DSC pattern were collected on TA Q500/5000 thermogravimetric analyzer and TA Q200/2000 differential scanning calorimeter respectively.
# [6] = target: T1, CDK2 (Homo sapiens, UniProt P24941); experiment: Kinase test in vitro (LANCE Ultra, Ulight-4EBP1); assay type: biochemical
# T1 construct: purchased Invitrogen
# Source text: (§3) Recombinant CDK1, CCNB1 and CDK9, and CCNT were purchased from BPS; CDK2, CCNA1, CDK4, CCND1 and CDK6, and CCND1 were purchased from Invitrogen; CDK4, CycD3 and CDK6, and CycD3 were purchased from Carna. Adenosine triphosphate (ATP) was purchased from Life tech. Substrate Ulight-4EBP1 and the corresponding detection antibody were purchased from Perkinelmer. LANCE Ultra system from Perkinelmer is used as the detection system.
# (§4) In the kinase test, a compound to be tested was 1:3 diluted for 8 gradient points and added into a reaction plate, and then an appropriate amount of recombinase was added. A buffer [50 mM HEPES pH7.5, 10 mM MgCl2, 3 mM MnCl2, 1 mM EGTA, 0.01% Tween-20, 1 mM TCEP] containing ATP, Ulight-4EBP1 premix at a predetermined concentration was subsequently added, and the kinase reaction began at room temperature. A test solution pre-mixed with 10 mM EDTA and detection antibody was added after a suitable reaction time, and then the fluorescence value was read on Tecan infinite pro after reacting for 1 hour at room temperature. The IC50 was calculated using a four-factor model fitting in a XLfit software.
# [7] = target: T2, CDK1 (Homo sapiens, UniProt P06493); experiment: Kinase test in vitro (LANCE Ultra, Ulight-4EBP1); assay type: biochemical
# T2 construct: purchased BPS
# T2 sequence (P06493 whole entry): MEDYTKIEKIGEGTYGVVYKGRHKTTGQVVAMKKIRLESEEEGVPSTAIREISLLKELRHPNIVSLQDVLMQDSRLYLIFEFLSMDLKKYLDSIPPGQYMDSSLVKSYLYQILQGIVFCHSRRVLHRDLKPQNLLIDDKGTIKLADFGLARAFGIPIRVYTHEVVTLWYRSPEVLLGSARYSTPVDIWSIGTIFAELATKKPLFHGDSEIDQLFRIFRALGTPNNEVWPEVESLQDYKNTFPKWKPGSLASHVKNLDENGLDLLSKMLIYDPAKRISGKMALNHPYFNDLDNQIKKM
# T2 sequence (P14635 whole entry partner): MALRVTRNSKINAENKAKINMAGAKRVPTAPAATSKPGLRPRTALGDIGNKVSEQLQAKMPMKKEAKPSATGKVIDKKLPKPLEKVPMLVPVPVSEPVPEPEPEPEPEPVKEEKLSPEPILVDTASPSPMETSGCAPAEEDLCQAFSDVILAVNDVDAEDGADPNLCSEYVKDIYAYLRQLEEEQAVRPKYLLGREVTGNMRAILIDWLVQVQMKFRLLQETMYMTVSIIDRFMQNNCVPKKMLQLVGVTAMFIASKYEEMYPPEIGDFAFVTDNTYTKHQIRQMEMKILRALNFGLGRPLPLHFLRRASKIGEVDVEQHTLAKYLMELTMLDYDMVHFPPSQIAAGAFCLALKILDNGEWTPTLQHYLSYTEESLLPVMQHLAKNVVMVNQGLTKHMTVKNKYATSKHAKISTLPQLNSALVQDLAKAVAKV
# Source text: as §3, §4
# [8] = target: T3, CDK4 (Homo sapiens, UniProt P11802); experiment: Kinase test in vitro (LANCE Ultra, Ulight-4EBP1); assay type: biochemical
# T3 construct: purchased Invitrogen or Carna
# T3 sequence (P11802 whole entry): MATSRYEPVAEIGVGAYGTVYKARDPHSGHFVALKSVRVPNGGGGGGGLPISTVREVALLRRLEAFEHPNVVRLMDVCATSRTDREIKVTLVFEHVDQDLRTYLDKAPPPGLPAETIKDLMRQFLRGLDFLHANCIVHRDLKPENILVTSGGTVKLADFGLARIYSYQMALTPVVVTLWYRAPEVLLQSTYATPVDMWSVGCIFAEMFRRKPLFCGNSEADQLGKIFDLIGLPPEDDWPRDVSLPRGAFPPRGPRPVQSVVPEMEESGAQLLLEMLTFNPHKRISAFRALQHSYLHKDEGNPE
# T3 sequence (P24385 whole entry partner): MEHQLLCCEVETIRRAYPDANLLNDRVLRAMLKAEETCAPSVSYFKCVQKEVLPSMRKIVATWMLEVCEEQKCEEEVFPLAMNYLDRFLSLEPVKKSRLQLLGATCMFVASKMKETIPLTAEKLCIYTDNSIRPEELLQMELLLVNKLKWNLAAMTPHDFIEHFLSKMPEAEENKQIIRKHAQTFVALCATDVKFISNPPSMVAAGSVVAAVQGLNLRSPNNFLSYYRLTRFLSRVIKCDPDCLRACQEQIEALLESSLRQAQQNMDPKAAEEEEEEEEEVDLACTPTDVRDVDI
# Source text: as §3, §4
# [9] = target: T4, CDK6 (Homo sapiens, UniProt Q00534); experiment: Kinase test in vitro (LANCE Ultra, Ulight-4EBP1); assay type: biochemical
# T4 construct: purchased Invitrogen or Carna
# T4 sequence (Q00534 whole entry): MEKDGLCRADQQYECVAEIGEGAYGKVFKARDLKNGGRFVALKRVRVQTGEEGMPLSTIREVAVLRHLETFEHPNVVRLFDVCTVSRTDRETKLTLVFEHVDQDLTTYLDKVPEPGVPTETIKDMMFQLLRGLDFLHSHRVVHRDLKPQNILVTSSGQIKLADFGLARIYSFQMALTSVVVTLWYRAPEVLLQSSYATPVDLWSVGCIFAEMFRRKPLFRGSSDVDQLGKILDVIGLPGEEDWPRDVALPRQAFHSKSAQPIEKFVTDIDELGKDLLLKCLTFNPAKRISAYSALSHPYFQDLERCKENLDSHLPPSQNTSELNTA
# T4 sequence (P24385 whole entry partner): as the sequence (P24385 whole entry partner) above
# Source text: as §3, §4
# [10] = Acetone, calculated for crystal form I
# [11] = Acetonitrile, calculated for crystal form I
# [12] = Ethanol, calculated for crystal form I
# [13] = Ethyl acetate, calculated for crystal form I
# [14] = H2O, calculated for crystal form I
# [15] = Isopropanol, calculated for crystal form I
# [16] = Methanol, calculated for crystal form I
# [17] = Tetrahydrofuran, calculated for crystal form I
# [18] = medium pH4.5, calculated for crystal form I
# [19] = medium pH6.8, calculated for crystal form I
# [20] = medium pH7.4, calculated for crystal form I
# [21] = 0.1 M HCl, calculated for crystal form I
# [22] = accelerated conditions for 28 days
# [23] = accelerated conditions 40° C./75% RH, open, on day 7
# [24] = accelerated conditions 40° C./75% RH, open, on day 14
# [25] = accelerated conditions 40° C./75% RH, open, on day 28
# [26] = accelerated conditions 40° C./75% RH, open, on day 28, footnote: content obviously higher, measurement has errors
# [27] = room temperature and accelerated conditions (40° C./75% RH), up to 28 days
# [28] = room temperature, open, on day 7
# [29] = room temperature, open, on day 14
# [30] = room temperature, open, on day 28
# [31] = room temperature, open, on day 28, footnote: content obviously higher, measurement has errors
Compound,hygroscopicity (in words) [1],hygroscopic weight gain [1] [%],solubility ranking of the crystal forms (in words) [2],"Solubility [2, 10] [mg/mL]","Solubility [2, 11] [mg/mL]","Solubility [2, 12] [mg/mL]","Solubility [2, 13] [mg/mL]","Solubility [2, 14] [mg/mL]","Solubility [2, 15] [mg/mL]","Solubility [2, 16] [mg/mL]","Solubility [2, 17] [mg/mL]","Solubility [2, 18] [mg/mL]","Solubility [2, 19] [mg/mL]","Solubility [2, 20] [mg/mL]","Solubility [2, 21] [mg/mL]","crystal form stability by XRD (in words) [3, 22]","Content [4, 23] [%]","Impurity peak [4, 23]","Content [4, 24] [%]","Impurity peak [4, 24]",other results
CCN1CCN(Cc2ccc(Nc3ncc4c(n3)-c3c(nc(C5CC5)n3C(C)C)C4)nc2)CC1 [Crystal form I],has hygroscopicity,8.84,the lowest solubility,>5,>1,>50,>10,0.36,>20,>100,>100,9.66,2.85,1.08,,,,,,,"Solubility ([2]; 0.1 M HCl, simulated gastric fluid, thermodynamic from solid, 0.1 M HCl, calculated for crystal form I, read-out: Solubility): 34.7 mg/mL; Solubility ([2]; 50% acetonitrile, aqueous with cosolvent or surfactant or cyclodextrin, thermodynamic from solid, 50% Acetonitrile, calculated for crystal form I, read-out: Solubility): > 25 mg/mL; Solubility ([2]; dimethyl sulfoxide, organic solvent or mixture, thermodynamic from solid, Dimethyl sulfoxide, calculated for crystal form I, read-out: Solubility): > 6.6 mg/mL; Solubility ([2]; methyl tert-butyl ether, organic solvent or mixture, thermodynamic from solid, Methyl tert-butyl ether, calculated for crystal form I, read-out: Solubility): > 2 mg/mL; Solubility ([2]; n-heptane, organic solvent or mixture, thermodynamic from solid, N-heptane, calculated for crystal form I, read-out: Solubility): < 2 mg/mL"
CCN1CCN(Cc2ccc(Nc3ncc4c(n3)-c3c(nc(C5CC5)n3C(C)C)C4)nc2)CC1 [Crystal form K-1],very hygroscopic,30.74,the best solubility,11.47,>16.64,>41.86,11.48,>38.91,>42.89,>30.41,39.09,>35.09,>33.57,>38.78,>44.74,,,,,,"Solubility ([2]; thermodynamic from solid, all solvents and media of Table 6, read-out: solubility in organic solvents and aqueous medium (summary)): 11 to 45 mg/mL"
CCN1CCN(Cc2ccc(Nc3ncc4c(n3)-c3c(nc(C5CC5)n3C(C)C)C4)nc2)CC1 [Crystal form A],slightly hygroscopic,0.613,,0.23,0.22,6.97,0.03,11.59,0.26,41.04,0.15,14.30,19.66,17.86,>58.10,crystal form is stable,100.97,none,104.46,none,"crystal form stability by XRD (in words) ([3]; high temperature of 60° C. for 14 days and 32 days): not transformed; chemical stability (in words) ([4]; 60° C., 14 and 32 days): chemical properties are stable; Impurity peak [4, 25]: none; Content [4, 26]: 113.75%; Content ([4]; on day 0): 103.14%; Impurity peak ([4]; on day 0): none; Content ([4]; oven at 60° C., on day 14): 106.2%; Impurity peak ([4]; oven at 60° C., on day 14): none; Content ([4]; oven at 60° C., on day 32): 104.5%; Impurity peak ([4]; oven at 60° C., on day 32): none; chemical stability (in words) [4, 27]: chemical properties are stable; Content [4, 28]: 103.82%; Impurity peak [4, 28]: none; Content [4, 29]: 104.20%; Impurity peak [4, 29]: none; Impurity peak [4, 30]: none; Content [4, 31]: 116.27%; solubility in aqueous medium (summary) [2]: more than 11 mg/ml"
CCN1CCN(Cc2ccc(Nc3ncc4c(n3)-c3c(nc(C5CC5)n3C(C)C)C4)nc2)CC1 [Crystal form B-1],has hygroscopicity,6.88,,>41.11,0.28,19.59,0.02,>40.85,0.58,>45.19,0.39,>29.40,>27.40,>25.65,>40.10,crystal form is stable,94.36,none,95.19,none,"weight loss (TGA) [5]: about 7.4%; Impurity peak [4, 25]: none; Content [4, 26]: 110.05%; Content ([4]; on day 0): 94.43%; Impurity peak ([4]; on day 0): none; chemical stability (in words) [4, 27]: chemical properties are stable; Content [4, 28]: 96.50%; Impurity peak [4, 28]: none; Content [4, 29]: 96.45%; Impurity peak [4, 29]: none; Impurity peak [4, 30]: none; Content [4, 31]: 107.12%; solubility in aqueous medium (summary) [2]: more than 25 mg/ml"
"Cc1c2c(nn1C)CCc1cnc(Nc3ccc(N4CCN(C)CC4)cc3)nc1-2 [compound 1, reference compound]",,,,,,,,,,,,,,,,,,,,,IC50 [6]: 23 nM; inhibitory activity against CDK2 (in words) [6]: strong inhibitory activity; IC50 [7]: 93 nM; inhibitory activity against CDK1 (in words) [7]: strong inhibitory activity; IC50 [8]: 8 nM; inhibitory activity against CDK4 (in words) [8]: strong inhibitory activity; IC50 [9]: 53 nM; inhibitory activity against CDK6 (in words) [9]: strong inhibitory activity
